Active and inactive are the calls of the source. The calls are words filed in the database; no cut-off is given here.
Assays:
[1] = system: LNCaP; assay: Antiproliferative activity against human LNCAP cells after 48 hrs by MTT assay; assay type: functional, cell-based
[2] = system: LNCaP; assay: Effect on morphology in human LNCAP cells assessed as elongation of cells by phase-contrast microscopy; assay type: functional, cell-based
[3] = system: LNCaP; assay: Antiproliferative activity against human LNCAP cells after 48 hrs by MTT assay in the presence of 1 uM RARalpha selective antagonist Ro415253; assay type: functional, cell-based
[4] = system: LNCaP; assay: Cell cycle arrest in human LNCAP cells assessed as accumulation at G0/G1 phase after 48 hrs by flow cytometry; assay type: functional
[5] = system: LNCaP; assay: Antiproliferative activity against human LNCAP cells assessed as maximal effect at 10 uM after 48 hrs by MTT assay; assay type: functional, cell-based
[6] = system: LNCaP; assay: Cell cycle arrest in human LNCAP cells assessed as accumulation at G2/M phase after 48 hrs by flow cytometry; assay type: functional
[7] = system: LNCaP; assay: Cell cycle arrest in human LNCAP cells assessed as accumulation at S phase after 48 hrs by flow cytometry; assay type: functional

In the case of `CC1=C(/C=C/C(C)=C/C=C/C(C)=C/C(=O)NCCCCCC(=O)O)C(C)(C)CCC1`, the Activity [1] is reported as “inactive” and the Activity [2] is reported as “Active”.

In the case of `CC1=C(/C=C/C(C)=C/C=C/C(C)=C/C(=O)O)C(C)(C)CCC1` [TRETINOIN], the Activity [3] is reported as “inactive”, the Activity [4] is reported as 66.7% and the Activity [1] is reported as “Dose-dependent effect”. The IC50 [1] was 0.5 µM, the Activity [5] was “Active” and the Activity [6] was 4.4%. It also gave an Activity [7] of 17.6%.

In the case of `CC1=C(/C=C/C(C)=C/C=C/C(C)=C/C(=O)N[C@@H](CC(C)C)C(=O)O)C(C)(C)CCC1`, the Activity [3] is reported as “Active”, the Activity [4] is reported as 65.9% and the Activity [1] is reported as “Dose-dependent effect”. The IC50 [1] was 0.27 µM, the Activity [5] was “Active” and the Activity [6] was 1.9%. It also gave an Activity [7] of 19.6%.

In the case of `CC1=C(/C=C/C(C)=C/C=C/C(C)=C/C(=O)NCCC(=O)O)C(C)(C)CCC1`, the Activity [3] is reported as “Active”, the Activity [4] is reported as 64% and the Activity [1] is reported as “Dose-dependent effect”. The IC50 [1] was 0.27 µM, the Activity [5] was “Active” and the Activity [6] was 2.2%. For the same molecule, the Activity [2] was “Active” and the Activity [7] was 14.8%.

— ChEMBL document CHEMBL1153010, “Effect of conjugates of all-trans-retinoic acid and shorter polyene chain analogues with amino acids on prostate cancer cell growth” (Eur J Med Chem, 2009)
